Key:
Bacteria = experiment: Antibiotic experiment according to Japanese Standards Testing Method (JISZ 2801-2000); format: cell-based; conditions: for Antimicrobial Activity Value: versus control group (neat cement paint)
Experimental: After formulating the organic quaternary ammonium salt having the siloxane structure to have a concentration of 5% and adjusting the pH value to be 7, an antibiotic experiment was performed according to Japanese Standards Testing Method (JISZ 2801-2000).

[1] = Test of the stability of antibacterial in latex paint; format: physicochemical; conditions: pH about 7
Experimental: Four quaternary ammonium salt antibacterials A, B, C, and D shown in table 1 were prepared respectively, in which A was a quaternary ammonium salt antibacterial having the siloxane structure, and the other three antibacterials B, C, and D were quaternary ammonium salt antibacterials having no siloxane structure. Then, the four antibacterials A, B, C, and D were respectively added into a latex paint, and formulated to have a concentrations of 500, 1500, 2500, and 5000 ppm, and the pH value was adjusted to about 7. Changes of the antibacterials in the latex paint were observed.

[2] = Potential measurement (surface potential, Zetasizer Nano ZS); format: physicochemical; conditions: concentration about 5%, pH 0-7, FIG. 1
Experimental: The methanol solution including 45% of the organic quaternary ammonium salt A having the siloxane structure and the methanol solution including 45% of the organic quaternary ammonium salt Bhaving no siloxane structure were respectively adjusted to a pH value of 0-7 by 0.1 N HCl and 0.1 N NaOH, and formulated to have a concentration of about 5%. The surface potentials were measured with Zetasizer, Nano ZS (Malvern, United Kingdom).

SMILES: CCCCCCCCCCCCCCCCCC[N+](C)(C)[Si](OC)(OC)OC.[Br-] [Antibacterial A]
- Bacteriostatic Ratio (Bacteria; 0 h): less than 90%
- Bacteria count at 0 h * 3 sheets (Bacteria; 0 h, concentration 5%, pH 7): 3.73 × 10^5
- Antimicrobial Activity Value (Bacteria; 0 h): 0.47
- Bacteriostatic Ratio (Bacteria; 3 h): 99%
- Bacteria count at 3 h * 3 sheets (Bacteria; 3 h, concentration 5%, pH 7): 1.48 × 10^3
- Antimicrobial Activity Value (Bacteria; 3 h): 2.95
- Bacteriostatic Ratio (Bacteria; 24 h): 99.99%
- Bacteria count at 24 h * 3 sheets (Bacteria; 24 h, concentration 5%, pH 7): <10
- Antimicrobial Activity Value (Bacteria; 24 h): 4.89
- Bacteriostatic Ratio (Bacteria; concentration 5%, pH 7, time not given): greater than 99.99%
- Miscibility in the latex paint ([1]; 500-5000 ppm): good miscibility
- Changes of the antibacterial in the latex paint ([1]; content of antibacterial 500 ppm): miscible
- Changes of the antibacterial in the latex paint ([1]; content of antibacterial 1500 ppm): miscible
- Changes of the antibacterial in the latex paint ([1]; content of antibacterial 2500 ppm): miscible
- Changes of the antibacterial in the latex paint ([1]; content of antibacterial 5000 ppm): miscible
- Electronegativity (surface potential) versus pH value [2]: increased with the increment of pH value

Source: patent US20080161268A1, “[…] AMMONIUM SALT ANTIBACTERIAL AND WATER-BORNE COATING MATERIAL HAVING […] CONTAINING THE SAME” (COMPAL ELECTRONICS, INC., priority 2006, published 2008)
